Test results reported in patent publication US20100137344A1, “INDUCTION OF ANALGESIA IN NEUROPATHIC PAIN” (University Court of the University of Edinburgh, priority 2006, published 2010).
Read-outs that look alike come from different tables or passages of the source.

Tested on: rats with chronic constriction injury (CCI) to sciatic nerve
Test: Intrathecal application in CCI rats, behavioural reflex testing (PWL, PWT)
Format: in vivo, rat
Conditions: for EC50: Rattus norvegicus, central; for duration of significant reversal of sensitised responses: (−)-menthol 200 nmol
Method: Pain models were generated under halothane anaesthesia (Zeneca, Cheshire, UK). For the chronic constriction injury (CCI) model of neuropathic pain, four ligatures were tied loosely to constrict the sciatic nerve at mid-thigh level (as described previously^[39]). An inflammatory pain model was generated by injecting 100 μl of Complete Freund's Adjuvant (CFA, Sigma-Aldrich Ltd) into the ventral surface of the right hindpaw^[39]. A model of peripheral demyelination-induced pain was produced by focal application of lysolecithin to the sciatic nerve^[40]. Peak behavioural sensitisation was observed post-surgically between days 10-16 for CCI, 1-3 for CFA, and 7-14 for lysolecithin, when pharmacological and electrophysiological experiments and tissue removal were conducted.
Thermal sensitivity was assessed by measuring paw withdrawal latency (PWL, s) in response to a noxious thermal stimulus (Hargreaves' thermal stimulator, Linton Instrumentation, Diss, UK) directed to the hindpaw mid-plantar glabrous surface. Mechanical sensitivity was recorded as the paw withdrawal threshold (PWT, mN/mm^2) to calibrated von Frey filaments (Stoelting, Ill., US), as previously described^[39]. Sensitivity to noxious cold was assessed by placing animals in a waterbath with an aluminium floor containing 1 cm deep 4° C. water and counting the time the paw was held suspended over a 20 s period.
The following drugs were applied intrathecally in a 50 μl volume of saline-based vehicle at 37° C.: icilin (2.5-200 μM in saline with 0.2% dimethylformamide, DMF), LY 341495 (100 μM in saline), UBP 1112 (200 μM in saline), 2R,4R-APDC ((2R, 4R)-4-aminopyrrolidine-2,4-dicarboxylate), 300 μM in saline), ACPT-III ((1R,3R,4S)-1-aminocyclopentane-1,3,4-tricarboxylic acid), 3 mM in saline), AP-4, ((L-(1)-2-amino-4-phosphonobutyric acid), 3 mM in saline), naloxone (0.5 mM in saline), NMDA (75 μM in saline) and ACPC (1-aminocyclopropanecarboxylic acid, 15 μM in saline) (Tocris Cookson, Bristol, UK), (−)-menthol (1R,2S,5R-(−)-menthol, 4 mM in saline), cinnamaldehyde (1.5 mM in saline) and Ruthenium Red (5 μM in saline) (Sigma-Aldrich Co. Ltd, UK) and allicin (0.5 mM in saline with 0.5% DMF) and diallyl disulphide (DADS, 1 mM in saline with 0.5% DMF) (LKT Laboratories Inc., St Paul, Minn., USA). Drugs were injected into the L5/6 intrathecal space under brief halothane anaesthesia, using a 25-gauge needle microsyringe (BD Biosciences, Oxford, UK), as described previously^[39] in animals that were at peak levels of behavioural sensitisation. Behavioural reflex testing commenced 15 min following injection to allow recovery from anaesthesia^[40,41,42] and continued every 5 min thereafter until readings returned to baseline levels (n=6 in each case). We, and others^[40,41,42] find complete recovery from anaesthetic by 15 minutes. All appropriate controls were carried out to eliminate the possibility of effects due to vehicle or to injection procedure.
The TRPM8 channel activators, icilin and (−)-menthol were tested in CCI and naïve animals. The effects of icilin were additionally assessed in animals with CFA-induced inflammation or with lysolecithin-induced demyelination. Icilin was also co-administered with the μ-opioid receptor antagonist naloxone, the Group II metabotropic glutamate receptor (mGluR) antagonist, LY 341495, or the Group III mGluR antagonist, UBP 1112. The effects of these antagonists alone as well as effects of the Group II mGluR agonist, 2R,4R-APDC and the Group III mGluR agonists, ACPT-III and AP-4, were assessed in CCI animals. The TRPA1 channel activator, cinnamaldehyde, alone and with icilin, was tested in CCI animals and in naïve animals. Further TRPA1 channel activators, allicin and diallyl disulphide were assessed in naïve animals. Both icilin and cinnamaldehyde effects in CCI animals were also investigated in the additional presence of Ruthenium Red.

[1] = intrathecal, non-linear curve-fitting
[2] = (−)-menthol 200 nmol intrathecal alone, 20-30 minutes post-injection

O=C1NC(c2cccc([N+](=O)[O-])c2)=CCN1c1ccccc1O [icilin, 1-(2′-hydroxyphenyl)-4-(3″-nitrophenyl)-1,2,3,6-tetrahydropyrimidin-2-one]
Ipsilateral PWL (CCI, NMDA/ACPC in the additional presence of icilin 10 nmol): 14.9 ± 0.6 s
Ipsilateral PWT (CCI, NMDA/ACPC with co-injection of icilin 10 nmol): 3482.7±174.3 mN/mm^2
Mean % reversal of mechanical sensitisation (after 15-30 mins) (CCI, icilin 10 nmol, i.t.): 76.8 ± 5.3%
Mean % reversal of thermal sensitisation (after 15-30 mins) (CCI, icilin 10 nmol, i.t.): 84.7 ± 6.0%
PWL (s) difference from control (+ icilin) (CCI, icilin 10 nmol, i.t.): 0.9 ± 1.2 s
PWT (mN/mm^2) difference from control (+ icilin) (CCI, icilin 10 nmol, i.t.): 775.4 ± 467.7 mN/mm^2
EC50 (intrathecal, non-linear curve-fitting, read-out: EC50 (dose for 50% of maximal effect), PWL): 0.17 ± 0.02 nM
EC50 (intrathecal, non-linear curve-fitting, read-out: EC50 (dose for 50% of maximal effect), PWT): 0.31 ± 0.02 nM
duration of significant reversal of sensitised responses (intrathecal, icilin 10 nmol): up to 55 min
maximal effect, reversal of sensitisation, PWL [1]: 91.6±9.9%
maximal effect, reversal of sensitisation, PWT [1]: 82.6±6.8%
dose by which analgesic effects were statistically significant (intrathecal, thermal and mechanical tests, nerve injury side): 0.125 nmol

CC(C)[C@@H]1CC[C@@H](C)C[C@H]1O [(−)-menthol, 1R,2S,5R-(−)-menthol]
mean percentage reversal of sensitisation, PWL [2]: 86.1±8.1%
mean percentage reversal of sensitisation, PWT [2]: 80.6±4.2%
duration of significant reversal of sensitised responses (intrathecal, icilin 10 nmol): 35 to 40 min
